Like-named read-outs stand apart in the source and are kept apart here.
Key:
[1] = target: DCN1 (DCUND1) protein PONY domain (Homo sapiens (Human), UniProt Q96GG9); assay: TR-FRET assay, DCN1 binding with FAM-labeled probe
How it was run: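 Tb-DCN1 PONY domain (E. coli, biotin/streptavidin-Tb); FAM-labelled non-covalent inhibitor probe; TritonX buffer, 200 mM NaCl; 5 nM DCN1 + 20 nM probe or 0.31 nM DCN1 + 900 nM total probe; 0.1% DMSO; TR-FRET read 1, 5, 24 hrs.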

DCN1 protein = DCN1 protein (Homo sapiens (Human), UniProt Q96GG9); assay: Intact Protein MS Analysis with the RapidFire-TOF System (covalent adduct formation); assay type: binding; details: MS Emax; 400 nM DCN1, 3 hours at room temperature
How it was run: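 Tag-cleaved human DCN1 (400 nM) expressed in E. coli, in 25 mM Tris-HCl, 200 mM NaCl, 1 mM DTT, was incubated with 11 compound concentrations for 3 h at room temperature and quenched with 0.2% formic acid. Intact-protein Q-TOF MS with deconvolution detected the compound adduct mass.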

[2] = tested on: Cullin-3 (CUL3) neddylation; assay: AlphaLISA assay for Cullin-3 (CUL3) neddylation in TF 1 cells; assay type: cell-based; details: Homo sapiens, TF-1, 3 h, 3 hours treatment
How it was run: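 Neddylated CUL3 was quantified by AlphaLISA in lysates of TF 1 cells exposed for 3 h to test compound in IMDM without supplements. Percent inhibition set between vehicle and 1 μM DI-1548 positive control; IC50 derived by Hill-equation fitting of dose-response curves.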

[3] = 24 hr after treatment with compound, read-out: TR FRET IC50 24 hr
[4] = read-out: TR FRET IC50 1 hr, 1 hr after treatment with compound
[5] = TR FRET IC50 1 hr (nM), 1 hr after treatment with compound

Sequence of DCN1 protein (Q96GG9 whole entry): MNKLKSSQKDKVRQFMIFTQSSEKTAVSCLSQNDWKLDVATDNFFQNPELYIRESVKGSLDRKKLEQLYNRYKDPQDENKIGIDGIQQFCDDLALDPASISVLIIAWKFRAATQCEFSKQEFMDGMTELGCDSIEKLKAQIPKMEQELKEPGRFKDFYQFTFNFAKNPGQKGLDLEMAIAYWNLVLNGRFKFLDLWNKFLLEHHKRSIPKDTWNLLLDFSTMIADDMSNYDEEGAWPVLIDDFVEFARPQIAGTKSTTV
Sequence of DCN1 (DCUND1) protein PONY domain (Q96GG9 60-248): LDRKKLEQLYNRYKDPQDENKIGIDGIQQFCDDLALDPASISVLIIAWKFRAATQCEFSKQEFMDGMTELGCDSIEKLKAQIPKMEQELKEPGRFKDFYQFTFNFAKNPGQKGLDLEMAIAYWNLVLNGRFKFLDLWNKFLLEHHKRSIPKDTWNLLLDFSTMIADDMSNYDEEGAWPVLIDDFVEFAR

Row | Structure (SMILES) | IC50 [1, 3] [nM] | IC50 [1, 4] [nM] | % Adduct Formation (DCN1 protein) | IC50 [2] [nM] | IC50 [1, 5] [nM]
1 | CCN1C(=O)[C@@H](NC(=O)c2cccc(C(F)(F)F)c2)[C@@H](c2ccc(F)cc2)c2c(C(=O)N(C)[C@H](C#N)CCN(C)C3COC3)nn(-c3ccccc3)c21 [Compound I-310] | ≤ 200 | ≤ 200 | +++ (MS Emax % adduct formation greater than 80.0 and less than or equal to 100.0) | ≤ 100 | –
2 | CCN1C(=O)[C@@H](NC(=O)c2cccc(C(F)(F)F)c2)[C@@H](c2ccc(F)cc2)c2c(C(=O)N(C)[C@H](C#N)CCN3CC4CC(C3)O4)nn(-c3ccccc3)c21 [Compound I-312] | ≤ 200 | ≤ 200 | +++ (MS Emax % adduct formation greater than 80.0 and less than or equal to 100.0) | ≤ 100 | –
3 | CCN1C(=O)[C@@H](NC(=O)c2cccc(C(F)(F)F)c2)[C@@H](c2ccc(F)cc2)c2c(C(=O)N(C)[C@@H](C#N)CCN3CC4CC(C3)O4)nn(-c3ccccc3)c21 [Compound I-313] | ≤ 200 | ≤ 200 | ++ (MS Emax % adduct formation greater than 30.0 and less than or equal to 80.0) | ≤ 100 | –
4 | CCN1C(=O)[C@@H](NC(=O)c2cccc(C(F)(F)F)c2)[C@@H](c2ccc(F)cc2)c2c(C(=O)N(C)[C@H](C#N)CCN3CCC34COC4)nn(-c3ccccc3)c21 [Compound I-314] | ≤ 200 | ≤ 200 | +++ (MS Emax % adduct formation greater than 80.0 and less than or equal to 100.0) | ≤ 100 | –
5 | CCN1C(=O)[C@@H](NC(=O)c2cccc(C(F)(F)F)c2)[C@@H](c2ccc(F)cc2)c2c(C(=O)N(C)[C@@H](C#N)CCN3CCC34COC4)nn(-c3ccccc3)c21 [Compound I-315] | ≤ 200 | ≤ 200 | +++ (MS Emax % adduct formation greater than 80.0 and less than or equal to 100.0) | ≤ 100 | –
6 | CCN1C(=O)[C@@H](NC(=O)c2cccc(C(F)(F)F)c2)[C@@H](c2ccc(F)cc2)c2c(C(=O)N(C)[C@H](C#N)CCN3CCN(C4COC4)CC3)nn(-c3ccccc3)c21 [Compound I-316] | ≤ 200 | ≤ 200 | +++ (MS Emax % adduct formation greater than 80.0 and less than or equal to 100.0) | ≤ 100 | –
7 | CCN1C(=O)[C@@H](NC(=O)c2cccc(C(F)(F)F)c2)[C@@H](c2ccc(F)cc2)c2c(C(=O)N(C)[C@@H](C#N)CCN3CCN(C4COC4)CC3)nn(-c3ccccc3)c21 [Compound I-317] | ≤ 200 | ≤ 200 | +++ (MS Emax % adduct formation greater than 80.0 and less than or equal to 100.0) | ≤ 100 | –
8 | CCN1C(=O)[C@@H](NC(=O)c2cccc(C(F)(F)F)c2)[C@@H](c2ccc(F)cc2)c2c(C(=O)N(C)[C@H](C#N)CCN3CC4CCC(C3)O4)nn(-c3ccccc3)c21 [Compound I-318] | ≤ 200 | – | +++ (MS Emax % adduct formation greater than 80.0 and less than or equal to 100.0) | ≤ 100 | 1000 to 3000
9 | CCN1C(=O)[C@@H](NC(=O)c2cccc(C(F)(F)F)c2)[C@@H](c2ccc(F)cc2)c2c(C(=O)N(CC#N)CCN3CCN(C4COC4)CC3)nn(-c3ccccc3)c21 [Compound I-323] | ≤ 200 | ≤ 200 | +++ (MS Emax % adduct formation greater than 80.0 and less than or equal to 100.0) | ≤ 100 | –
10 | CCN1C(=O)[C@@H](NC(=O)c2cccc(C(F)(F)F)c2)[C@@H](c2ccc(F)cc2)c2c(C(=O)N3CCS(=O)(=O)CC3C#N)nn(-c3ccccc3)c21 (some centres unmarked) [Compound I-325] | ≤ 200 | ≤ 200 | +++ (MS Emax % adduct formation greater than 80.0 and less than or equal to 100.0) | ≤ 100 | –
11 | CCN1C(=O)[C@@H](NC(=O)c2cccc(C(F)(F)F)c2)[C@@H](C2CC2)c2c(C(=O)N3[C@H](C#N)C[C@H]4C[C@H]43)nn(-c3ccccc3)c21 [Compound I-326] | ≤ 200 | ≤ 200 | +++ (MS Emax % adduct formation greater than 80.0 and less than or equal to 100.0) | ≤ 100 | –
12 | CCN1C(=O)[C@@H](NC(=O)c2cccc(C(F)(F)F)c2)[C@@H](C2CC2)c2c(C(=O)N3[C@H](C#N)C[C@H]4C[C@H]43)nn(C3CC3)c21 [Compound I-327] | ≤ 200 | ≤ 200 | +++ (MS Emax % adduct formation greater than 80.0 and less than or equal to 100.0) | ≤ 100 | –
13 | CCCn1nc(C(=O)N2[C@H](C#N)C[C@H]3C[C@H]32)c2c1N(CC)C(=O)[C@@H](NC(=O)c1cccc(C(F)(F)F)c1)[C@H]2C1CC1 [Compound I-328] | ≤ 200 | ≤ 200 | +++ (MS Emax % adduct formation greater than 80.0 and less than or equal to 100.0) | ≤ 100 | –
14 | CCN1C(=O)[C@@H](NC(=O)c2cccc(C(F)(F)F)c2)[C@@H](c2ccc(F)cc2)c2c(C(=O)N3[C@H](C#N)C[C@H]4C[C@H]43)nn(C3CCOCC3)c21 [Compound I-329] | ≤ 200 | ≤ 200 | +++ (MS Emax % adduct formation greater than 80.0 and less than or equal to 100.0) | ≤ 100 | –
15 | CCN1C(=O)[C@@H](NC(=O)c2cccc(C(F)(F)F)c2)[C@@H](c2ccc(F)cc2)c2c(C(=O)N3[C@H](C#N)C[C@H]4C[C@H]43)nn(C3CC3)c21 [Compound I-330] | ≤ 200 | ≤ 200 | +++ (MS Emax % adduct formation greater than 80.0 and less than or equal to 100.0) | ≤ 100 | –
16 | CCCn1nc(C(=O)N2[C@H](C#N)C[C@H]3C[C@H]32)c2c1N(CC)C(=O)[C@@H](NC(=O)c1cccc(C(F)(F)F)c1)[C@H]2c1ccc(F)cc1 [Compound I-331] | ≤ 200 | ≤ 200 | +++ (MS Emax % adduct formation greater than 80.0 and less than or equal to 100.0) | ≤ 100 | –
17 | CCN1C(=O)[C@@H](NC(=O)c2cccc(C(F)(F)F)n2)[C@@H](c2ccc(F)cc2)c2c(C(=O)N3CCC[C@H]3C#N)nn(C3CCOCC3)c21 [Compound I-332] | ≤ 200 | – | +++ (MS Emax % adduct formation greater than 80.0 and less than or equal to 100.0) | ≤ 100 | 200 to 1000
18 | CCN1C(=O)[C@@H](NC(=O)c2cccc(C(F)(F)F)c2F)[C@@H](c2ccc(F)cc2)c2c(C(=O)N3CCC[C@H]3C#N)nn(C3CCOCC3)c21 [Compound I-333] | ≤ 200 | – | +++ (MS Emax % adduct formation greater than 80.0 and less than or equal to 100.0) | ≤ 100 | 200 to 1000
19 | CCN1C(=O)[C@@H](NC(=O)c2cccc(C(F)(F)F)c2)[C@@H](c2ccc(F)cc2)c2c(C(=O)N3CCC[C@H]3C#N)nn(-c3cccc(OCCCN(C)C4COC4)c3)c21 [Compound I-335] | ≤ 200 | – | +++ (MS Emax % adduct formation greater than 80.0 and less than or equal to 100.0) | ≤ 100 | 1000 to 3000
20 | CCN1C(=O)[C@@H](NC(=O)c2cccc(C(F)(F)F)c2)[C@@H](c2ccc(F)cc2)c2c(C(=O)N3CCC[C@H]3C#N)nn(-c3cccc(OCCCN4CCC5(CC4)COC5)c3)c21 [Compound I-336] | ≤ 200 | ≤ 200 | +++ (MS Emax % adduct formation greater than 80.0 and less than or equal to 100.0) | ≤ 100 | –
